We go through 52 molecules from ChEMBL document CHEMBL1122801, “Nontricyclic antidepressant agents derived from cis- and trans-1-amino-4-aryltetralins” (J Med Chem, 1984).

Assay [1] has as its target Sodium-dependent dopamine transporter (Rattus norvegicus, UniProt P23977). The assay can be described thus: Inhibition of dopamine uptake in synaptosomal preparation in rat corpus striatum, using [3H]dopamine. The assay is classed as functional, tissue-based.
The target in assay [2] is Norepinephrine transporter (Rattus norvegicus, UniProt Q9WTR4). The assay can be described thus: Inhibition of norepinephrine uptake in synaptosomal preparation fro rat hypothalamus, using [3H]norepinephrine. The format is functional, tissue-based.

Structures can show the parent of a compound that is named as a salt.

Sodium-dependent dopamine transporter, sequence (P23977 whole entry): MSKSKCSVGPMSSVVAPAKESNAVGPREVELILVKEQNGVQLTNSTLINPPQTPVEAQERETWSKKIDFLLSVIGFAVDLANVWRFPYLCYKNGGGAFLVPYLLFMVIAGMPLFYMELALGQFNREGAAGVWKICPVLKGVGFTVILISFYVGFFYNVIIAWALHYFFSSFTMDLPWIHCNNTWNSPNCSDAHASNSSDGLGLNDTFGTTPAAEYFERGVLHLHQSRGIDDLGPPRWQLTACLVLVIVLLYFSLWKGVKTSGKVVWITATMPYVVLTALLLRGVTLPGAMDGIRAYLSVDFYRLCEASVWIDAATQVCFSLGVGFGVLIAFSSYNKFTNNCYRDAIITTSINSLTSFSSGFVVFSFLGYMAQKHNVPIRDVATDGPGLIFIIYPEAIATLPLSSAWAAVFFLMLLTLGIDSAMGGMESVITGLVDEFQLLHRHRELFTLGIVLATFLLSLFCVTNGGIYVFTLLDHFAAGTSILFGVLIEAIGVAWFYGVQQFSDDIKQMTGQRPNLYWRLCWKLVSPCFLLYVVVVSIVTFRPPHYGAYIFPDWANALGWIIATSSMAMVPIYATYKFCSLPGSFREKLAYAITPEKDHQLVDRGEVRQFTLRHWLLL
Norepinephrine transporter, sequence (Q9WTR4 whole entry): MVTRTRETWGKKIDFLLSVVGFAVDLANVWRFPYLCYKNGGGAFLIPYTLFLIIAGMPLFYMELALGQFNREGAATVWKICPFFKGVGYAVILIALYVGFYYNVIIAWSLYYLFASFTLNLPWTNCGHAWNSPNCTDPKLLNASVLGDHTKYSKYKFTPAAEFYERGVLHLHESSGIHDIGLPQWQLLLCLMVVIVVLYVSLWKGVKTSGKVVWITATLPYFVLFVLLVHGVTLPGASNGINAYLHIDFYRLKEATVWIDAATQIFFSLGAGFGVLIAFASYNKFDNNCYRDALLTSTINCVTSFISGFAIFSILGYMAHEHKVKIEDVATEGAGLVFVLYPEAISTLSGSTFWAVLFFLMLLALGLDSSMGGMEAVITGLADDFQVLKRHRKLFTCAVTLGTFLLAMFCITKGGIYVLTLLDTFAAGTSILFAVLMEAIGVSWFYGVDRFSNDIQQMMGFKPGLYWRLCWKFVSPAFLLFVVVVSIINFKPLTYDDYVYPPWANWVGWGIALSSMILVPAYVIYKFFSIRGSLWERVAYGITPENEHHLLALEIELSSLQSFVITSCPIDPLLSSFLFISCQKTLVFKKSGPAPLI

`COCCCC/C(=N\OCCN)c1ccc(C(F)(F)F)cc1` [FLUVOXAMINE]: the IC50 in assay [1] was determined as 45000 nM; in assay [2], 1900 nM. The matching figures for `CN[C@@H]1CC[C@@H](c2ccccc2)c2ccccc21` (stereo in doubt; 45) [TAMETRALINE]: 1400 nM and 370 nM. As for `CN[C@H]1CC[C@@H](c2cccc(C(F)(F)F)c2)c2ccccc21`, the values for the IC50 in assay [1] and in assay [2] were 2540 nM and 2550 nM, respectively.

In assay [2], `CCCCOc1ccc([C@@H]2CC[C@H](NC)c3ccccc32)cc1` showed an IC50 of 940 nM. As to `CN[C@H]1CC[C@@H](c2ccccc2)c2ccccc21`, the results for the IC50 in assay [1] and in assay [2] were 5100 nM and 1860 nM, respectively. With `CN[C@@H]1CC[C@@H](c2ccc(F)cc2)c2ccccc21`, the IC50 in assay [1] was 220 nM; in assay [2] it was 30 nM. In the case of `CN[C@@H]1CC[C@@H](c2ccc(OC)cc2)c2ccccc21`, the IC50 came out at 400 nM in assay [1] and 150 nM in assay [2].

On to `N[C@H]1CC[C@@H](c2ccc(Cl)c(Cl)c2)c2ccccc21`, for which the IC50 in assay [1] is 1250 nM; in assay [2] it was 250 nM.

In assay [2], `CCCCOc1ccc([C@@H]2CC[C@@H](NC)c3ccccc32)cc1` yielded an IC50 of 1150 nM. `CN(C)[C@@H]1CC[C@@H](c2ccc(Cl)c(Cl)c2)c2ccccc21`: 170 nM corresponded to half-maximal inhibition in assay [1] (IC50). Take `CN[C@H]1CC[C@@H](c2ccc(OC)cc2)c2ccccc21`: the IC50 in assay [1] is 4200 nM; in assay [2] it was 3000 nM. Consider `CN(C)[C@@H]1CC[C@@H](c2ccc(C(F)(F)F)cc2)c2ccccc21`, for which the results for the IC50 in assay [1] and in assay [2] were 9800 nM and 4700 nM, respectively.

`CN[C@H]1CC[C@@H](c2ccc(Cl)c(C(F)(F)F)c2)c2ccccc21` (stereo in doubt; 60) yielded an IC50 in assay [1] of 6200 nM. Take `CN(C)[C@H]1CC[C@@H](c2ccccc2)c2ccccc21`: the IC50 worked out at 10000 nM in assay [1] and 310 nM in assay [2]. `CN[C@@H]1CC[C@@H](c2ccc(Cl)cc2Cl)c2ccccc21` gave an IC50 in assay [1] of 6100 nM. Consider `CN[C@H]1CC[C@@H](c2ccc(Cl)cc2Cl)c2ccccc21`, for which the IC50 in assay [1] was 1700 nM. Regarding `CN[C@H]1CC[C@@H](c2cccc(C(F)(F)F)c2)c2ccccc21` (stereo in doubt; 57), the values for the IC50 in assay [1] and in assay [2] were 2500 nM and 7800 nM, respectively. For `CN[C@@H]1CC[C@@H](c2cccc(C(F)(F)F)c2)c2ccccc21`, the IC50 in assay [1] was determined as 2600 nM; in assay [2], 260 nM. Regarding `CN[C@H]1CC[C@@H](c2cccc(OC)c2)c2ccccc21`, the results for the IC50 in assay [1] and in assay [2] were 5000 nM and 1400 nM, respectively. For `CN(C)[C@@H]1CC[C@@H](c2ccc(Cl)cc2)c2ccccc21` the same measures were 380 nM and 130 nM. For `CN[C@@H]1CC[C@@H](c2ccc(Oc3ccccc3)cc2)c2ccccc21` the same measures were 8400 nM and 2300 nM. For `CN[C@@H]1CC[C@@H](c2cccc(OC)c2)c2ccccc21` the same measures were 530 nM and 60 nM.

Molecule `CN[C@@H]1CC[C@@H](c2ccc(Cl)c(C(F)(F)F)c2)c2ccccc21` yielded an IC50 in assay [1] of 7300 nM.

As to `N[C@H]1CC[C@@H](c2ccc(C(F)(F)F)cc2)c2ccccc21`, the IC50 in assay [1] was 10000 nM; in assay [2], 7500 nM. For `CN(C)[C@H]1CC[C@@H](c2ccc(Cl)cc2)c2ccccc21`, the results for the half-maximal inhibitory concentration (IC50) in assay [1] and in assay [2] were 5600 nM and 1160 nM, respectively.

On to `CN[C@H]1CC[C@@H](c2ccc(F)cc2)c2ccccc21`, for which the IC50 worked out at 4700 nM in assay [1] and 2300 nM in assay [2]. The matching figures for `CN[C@@H]1CC[C@@H](c2ccccc2)c2ccccc21` (stereo in doubt; 44) [TAMETRALINE]: 150 nM and 18 nM. On to `N[C@H]1CC[C@@H](c2cccc(C(F)(F)F)c2)c2ccccc21`, for which the IC50 in assay [1] came out at 4700 nM; in assay [2] it was 3500 nM.

In the case of `CN(C)[C@H]1CC[C@@H](c2ccc(Cl)c(Cl)c2)c2ccccc21`, the IC50 in assay [1] is 2000 nM.

On to `CN[C@H]1CC[C@@H](c2ccccc2OC)c2ccccc21`, for which the IC50 is 11200 nM in assay [1] and 2300 nM in assay [2]. The matching figures for `CN[C@@H]1CC[C@@H](c2ccc(C(F)(F)F)cc2)c2ccccc21`: 4400 nM and 690 nM. The matching figures for `CN[C@@H]1CC[C@@H](c2ccc(Br)cc2)c2ccccc21`: 80 nM and 30 nM.

`CN[C@H]1CC[C@@H](c2ccc(Cl)c(C(F)(F)F)c2)c2ccccc21` showed an IC50 in assay [1] of 1500 nM. Regarding `CN[C@H]1CC[C@@H](c2ccc(C(F)(F)F)cc2)c2ccccc21` (stereo in doubt; 55), the IC50 in assay [1] came out at 5600 nM; in assay [2], 12000 nM. The matching figures for `CN[C@@H]1CC[C@@H](c2ccccc2)c2ccccc21` [TAMETRALINE HYDROCHLORIDE]: 210 nM and 40 nM. For `CN[C@@H]1CC[C@@H](c2ccccc2OC)c2ccccc21` the same measures were 5700 nM and 480 nM. For `CN[C@H]1CC[C@@H](c2ccc(C(F)(F)F)cc2)c2ccccc21` the same measures were 7800 nM and 9800 nM. As for `CN1Cc2c(N)cccc2C(c2ccccc2)C1` (configuration not stated) [NOMIFENSINE], it took 20 nM to reach half-maximal inhibition in assay [2] (IC50). With `CN[C@H]1CC[C@@H](c2cccc(C(F)(F)F)c2)c2ccccc21` (stereo in doubt; 56), the IC50 in assay [1] was 9700 nM; in assay [2], 2700 nM.

For `CN[C@@H]1CC[C@@H](c2ccc(F)c(OC)c2)c2ccccc21`, the IC50 in assay [1] was found to be 1200 nM; in assay [2], 340 nM. For `CN(C)[C@@H]1CC[C@@H](c2cccc(C(F)(F)F)c2)c2ccccc21` the same measures were 6100 nM and 1400 nM. `CN(C)[C@@H]1CC[C@@H](c2ccccc2)c2ccccc21`: the IC50 worked out at 840 nM in assay [1] and 140 nM in assay [2].

In the case of `CN[C@H]1CC[C@@H](c2ccc(Br)cc2)c2ccccc21`, the figures for the IC50 in assay [1] and in assay [2] were 1600 nM and 1400 nM, respectively.

`CN[C@H]1CC[C@@H](c2ccccc2)c2ccccc21` (stereo in doubt; 50): the IC50 in assay [1] turned out to be 5500 nM; in assay [2], 1800 nM. For `CN[C@H]1CC[C@@H](c2ccccc2)c2ccccc21` (stereo in doubt; 51) the same measures were 10200 nM and 4200 nM.

In the case of `CN(C)[C@H]1CC[C@@H](c2ccc(C(F)(F)F)cc2)c2ccccc21`, the half-maximal inhibitory concentration (IC50) in assay [1] stood at 12200 nM; in assay [2], 14200 nM. The matching figures for `CN[C@H]1CC[C@@H](c2ccc(Oc3ccccc3)cc2)c2ccccc21`: 6800 nM and 3900 nM.

Regarding `CN[C@H]1CC[C@@H](c2ccc(F)c(OC)c2)c2ccccc21`, the IC50 came out at 850 nM in assay [1] and 3300 nM in assay [2]. Turning to `CN[C@H]1CC[C@@H](c2ccc(Cl)c(C(F)(F)F)c2)c2ccccc21` (stereo in doubt; 61), 490 nM corresponded to half-maximal inhibition in assay [1] (IC50). In assay [1], `CN(C)C/C=C(/c1ccc(Br)cc1)c1cccnc1` [ZIMELDINE] came in with an IC50 of 43000 nM.

Consider `CN(C)[C@H]1CC[C@@H](c2cccc(C(F)(F)F)c2)c2ccccc21`, for which the concentration for half-maximal inhibition (IC50) in assay [1] was found to be 7000 nM; in assay [2], 890 nM.

As for `CN[C@H]1CC[C@@H](c2ccc(C(F)(F)F)cc2)c2ccccc21` (stereo in doubt; 54), the IC50 in assay [1] worked out at 6400 nM; in assay [2], 9400 nM.

In general, IC50 refers to the point on the concentration scale where inhibition reaches its midpoint.
